Experiment [1] relates to RAW 264.7 cells. In words: Phagocytosis of FITC-immune complexes by RAW 264.7 cells. Type of experiment: cell-based. To be noted: Mus musculus, RAW264.7; 20 μM; read-out: inhibition of phagocytosis of IC. As for the experimental part:
This assay was performed to determine the ability of protein A mimic compounds to stimulate or inhibit uptake of FITC-Immune Complex (IC). FITC-IC was prepared by mixing human serum albumin (HSA)-fluorescein isothiocyanate (FITC) with mouse IgG anti-HSA at a 1:4 ratio (four molecules of antibody for one molecule of antigen) on a rotary shaker for 1 h at room temperature. Soluble IC was then incubated with or without compounds or protein A for 10 min. This mixture was added to RAW 264.7 cells and incubated for 2 h at 37° C. for IC phagocytosis. After incubation, cells were washed twice in cold PBS (5 min, 1200 rpm) and fixed with 500 μL PBS containing 2% formaldehyde. FITC signal taken up by RAW 264.7, which is indicative of IC phagocytosis, was determined by flow cytometry analysis in a Becton Coulter counter with an argon laser and signal was measured through a 530/30 nm filter.

Experiment [2] concerns TNFα production, J774A-1 cells. In words: LPS-induced TNFα production in J774A-1 cells (ELISA). Type of experiment: cell-based. To be noted: Mus musculus, J774.A1, 24 h, read-out: IC50 (μM), inhibition of TNFα released by LPS induction. As for the experimental part:
Effect of compounds on TNFα production was measured by ELISA using J774-1 cells stimulated by LPS. J774-1 cells were cultured in the presence or absence of LPS and compound. Cells were cultured at 37° C. for 24 h and thereafter the supernatants were collected for the determination of the concentration of TNFα by ELISA as recommended by the manufacturer (BD Biosciences). Data was analyzed in Microsoft Excel and the concentration of compound which inhibits 50% of TNFα production (IC50) was calculated using Prism software.
(An ELISA detects its analyte on a solid surface through an enzyme-linked reagent.)

Experiment [3] addresses T1, Fc portion of human IgG (binding of protein A to human IgG).
T1 construct: fused on or other part: Horseradish peroxidase chemically conjugated to the IgG (HRP-IgG)
Description: Competitive protein A binding ELISA. To be noted: Table 1. In outline: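 Protein A coated overnight at 4 °C and blocked with 2% BSA. Compound, diluted in PBS or PBS-20% DMSO, competed with HRP-conjugated human IgG for 1 h at 37 °C. Bound IgG detected with ABTS at 405 nm; IC50 is the concentration inhibiting 50% of protein A binding.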

Experiment [4] deals with MRL/lpr mice. In words: SLE-like syndrome in MRL/lpr mice. The format is in vivo. As to conditions: control group 10%. An excerpt: FIG. 5 is an example of the effect of compounds on survival of MRL/lpr mice. These mice also spontaneously develop SLE-like syndrome. MRL/lpr have a homozygous fas mutation, which accelerates autoimmunity. […] Furthermore, compounds 1 and 20 increase the survival (40%) compared to the control group (10%).

For experiment [5], the system named is female Lewis rats, collagen-induced arthritis. Description: Collagen-induced arthritis (CIA). Type of experiment: in vivo. To be noted: intravenous; by day 14 and beyond. Here is the method:
Collagen-induced arthritis (CIA) was induced in female Lewis rats by intradermal administration of heterologous (bovine) type II collagen (250 μg) solubilized in 0.1 M acetic acid and emulsified in Complete Freund's Adjuvant (CFA). Rats were treated with the vehicle or methotrexate or compound 1 by intravenous injections at day 8, 9, 12, 14 and 16. Synovitis typically develops 12-15 days postimmunization in 80-90% of the animals. Once arthritis appears, each paw was examined two to three times a week. Both the incidence and severity of the arthritis was evaluated. Incidence is defined as the number of rats with clinical evidence of joint inflammation during the study period while severity was quantified by scoring daily each paw integer on a scale of 0 to 4 (0=normal, 4=maximum; Table 7) based on increasing levels of swelling, periarticular erythema and stiffness. The sum of the scores for all four paws was calculated as the arthritic index with a maximum possible score of 16 per rat. Since CIA primarily affects hind limbs, scores of 6-8 represent severe arthritis.

The test system of experiment [6] is female Lewis rats, adjuvant-induced arthritis. In words: Freund's adjuvant-induced arthritis (AIA). The format is in vivo. The source says: AIA was induced in female Lewis rats by the injection of lyophilized Mycobacterium butyricum suspended in mineral oil into the footpad. The development of aridity was monitored over a 3 weeks period post-adjuvant injection, inflammation peaks at day 3 following the adjuvant administration. Immune activation appears around day 14. Compounds were orally or intravenously administered at different doses at day −3, −2 and −1 pre-adjuvant injection and at different regimen as specified in the exponent starting from day 10 through 21 post-adjuvant injection or animals were treated with oral admiration of compound 19a from day −3 to day 21. Body weight was recorded. The arthritis index, which is a measure of inflammation (oedema), redness and stiffness of the articulations, was used to monitor the development of the disease. The degree of arthritis was determined by measuring two perpendicular diameters of the ankles in the mediolateral and dorsoventral planes using a caliper. Joint circumference in millimeters is then calculated using a geometric formula. Both the incidence and severity of the arthritis was evaluated. Incidence is defined as the number of rats with clinical evidence of joint inflammation during the study period.

Setting [7] is: PBS-20% DMSO, read-out: IC50 (μM): Assay in PBS-20% DMSO.

Read-outs that look alike come from different tables or passages of the source.

For the compound `N=C(N)NCCNc1nc(NCCc2ccc(Oc3nc(NCCc4ccc(O)cc4)nc(Nc4ccccc4)n3)cc2)nc(Nc2ccccc2)n1` [Compound 14], in experiment [1], the inhibition – broadly, the drop in the measured response relative to a control, in per cent – at 20 µM was about 50%. The IC50 (usually the concentration that inhibits the measured activity by half) in experiment [2] was found to be 11.8 µM; in experiment [3] (setting [7]), 63 µM; in experiment [3] (PBS, read-out: IC50 (μM): Assay in PBS) it was 33 µM.

With `OCCNc1nc(NCCc2ccc(Nc3nc(NCCc4ccc(O)cc4)nc(Nc4ccccc4)n3)cc2)nc(Nc2ccccc2)n1` [Compound 20], the IC50 in experiment [2] stood at 23.3 µM; in experiment [3] (setting [7]), 26 µM. Besides, the “survival of MRL/lpr mice” value in experiment [4] was 40%.

As for `CN(Cc1cnc2nc(N)nc(N)c2n1)c1ccc(C(=O)N[C@@H](CCC(=O)O)C(=O)O)cc1` [methotrexate, reference compound], the “reduction in the severity of arthritis (arthritic index)” value in experiment [5] came to 50%. In addition, the “inhibition of chronic inflammation (days 12 to 21)” value in experiment [6] (days 15 to 21) is “strong and significant inhibition of inflammation”. Moreover, the “reduction in the severity of arthritis (inflammatory index)” value in experiment [6] (intravenous, by day 19 and over, FIG. 10) is recorded as 50%.
